Assay results as given in the supplement of paper PMC12420376.

Legend:
OVCAR8 = experiment: drug sensitivity score (DSS2) on cancer cell count; higher = more sensitive; extreme values may be limits of the assay; conditions: 72 h
How it was run: (§1)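 Ovarian cancer cells were grown alone or in 1:1 direct co-culture with lung or skin fibroblasts. They were plated onto 384-well plates pre-spotted acoustically with 528 approved and investigational compounds at 5 concentrations, then treated for 72 h. Cells were fixed, immunostained for CK8/18 with Hoechst, and imaged at 10× (4 fields) to count cancer cells. A drug sensitivity score (DSS2) was derived in Breeze from 4-parameter logistic fits, with screen quality checked by Z'.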

KURAMOCHI = experiment: as above; conditions: 72 h
How it was run: as §1

[1] = co-cultured fibroblast: BJHTERT
[2] = co-cultured fibroblast: none (monoculture)

| Compound | drug sensitivity score (OVCAR8; [1]) [DSS] | drug sensitivity score (OVCAR8; co-cultured fibroblast: WI38) [DSS] | drug sensitivity score (OVCAR8; [2]) [DSS] | drug sensitivity score (KURAMOCHI; [1]) [DSS] | drug sensitivity score (KURAMOCHI; co-cultured fibroblast: WI38) [DSS] | drug sensitivity score (KURAMOCHI; [2]) [DSS] |
| --- | --- | --- | --- | --- | --- | --- |
| Nc1cc(F)ccc1NC(=O)c1ccc(CNC(=O)/C=C/c2cccnc2)cc1 [Tucidinostat] | 8 | 4.4 | 11.8 | 7.6 | 11.2 | 9.7 |
| CN[C@@H]1C[C@H]2O[C@@](C)([C@@H]1OC)n1c3ccccc3c3c4c(c5c6ccccc6n2c5c31)C(=O)N[C@H]4O [UCN-01] | 19.6 | 14.3 | 17.7 | 17 | 17.3 | 22.7 |
| COC(=O)c1ccc2c(c1)[nH]c1ncnc(NCCCN3CCCCC3)c12 [UM729] | 6.9 | 1.1 | 3.5 | 1.1 | 0 | 4.1 |
| COc1cc2c(NC3CCN(C(C)C)CC3)nc(C3CCCCC3)nc2cc1OCCCN1CCCC1 [UNC0638] | 7.1 | 0 | 0.1 | 4.4 | 1.8 | 0 |
| COc1cc2c(NC3CCN(C(C)C)CC3)nc(N3CCC(F)(F)CC3)nc2cc1OCCCN1CCCC1 [UNC0642] | 8 | 0 | 2.2 | 1.5 | 0.7 | 0.1 |
| O=C(c1ccc(C(=O)N2CCC(N3CCCC3)CC2)c(Nc2ccccc2)c1)N1CCC(N2CCCC2)CC1 [UNC1215] | 0 | 0 | 0 | 0 | 0 | 0 |
| CCCCNc1ncc(C(=O)NCc2ccc(-n3ccnc3)cc2)c(NC2CCC(O)CC2)n1 (stereo not drawn) [UNC2881] | 0.2 | 1.1 | 0 | 2.4 | 3 | 0.4 |
| NC(=O)c1cccc(-c2cccc(OC(=O)NC3CCCCC3)c2)c1 [URB597] | 0 | 0 | 0 | 0 | 0 | 0 |
| CC(C)Nc1cc(-c2c[nH]c(C(=O)N[C@H](CO)c3cccc(Cl)c3)c2)c(Cl)cn1 [Ulixertinib] | 8.8 | 13.9 | 11 | 9.7 | 9.6 | 12.2 |
| Cn1ncc(Cl)c1-c1cc(C(=O)N[C@H](CN)Cc2ccc(F)c(F)c2)oc1Cl [Uprosertib] | 0.6 | 0 | 0.1 | 0.5 | 4.4 | 2 |
| CS(=O)(=O)c1ccc(-c2cnc(N)c(C(=O)Nc3ccccc3)n2)cc1 [VE-821] | 3.1 | 0 | 0 | 0 | 0 | 0 |
| O=C(O)CC1CC(c2ccccc2)=NO1 (stereo not drawn) [VGX-1027] | 0.3 | 0 | 0 | 0 | 0 | 0 |
| C=CC(=O)N1CC/C(=C\c2ccc(F)c([N+](=O)[O-])c2)C(=O)/C(=C/c2ccc(F)c([N+](=O)[O-])c2)C1 [VLX1570] | 24.8 | 31.1 | 31.7 | 27.4 | 24.7 | 29 |
| CNC(=O)c1ccccc1Nc1cc(Nc2ccc(N3CCOCC3)cc2OC)ncc1C(F)(F)F [VS-4718] | 6.7 | 3.5 | 8.5 | 9 | 7.9 | 14.2 |
| CCCC(CCC)C(=O)O [Valproic acid] | 0 | 0 | 0 | 0 | 0 | 0 |
| CCCCC(=O)OCC(=O)[C@]1(O)Cc2c(O)c3c(c(O)c2[C@@H](O[C@H]2C[C@H](NC(=O)C(F)(F)F)[C@H](O)[C@H](C)O2)C1)C(=O)c1c(OC)cccc1C3=O [Valrubicin] | 17.6 | 15.3 | 18.4 | 19.7 | 17.1 | 24.1 |
| COc1cc2/c(=N/c3ccc(Br)cc3F)nc[nH]c2cc1OCC1CCN(C)CC1 [Vandetanib] | 0 | 0 | 2.1 | 0 | 2.6 | 10.6 |
| CCc1c(C(=O)C(N)=O)c2c(OCC(=O)O)cccc2n1Cc1ccccc1 [Varespladib] | 0 | 0 | 3.4 | 0 | 0 | 0 |
